# Source: EPA's ToxValDB 9.5 (doi:10.2903/j.efsa.2008.176r)
# Tests used:
# [1] = tested on: Colinus virginianus; conditions: oral
# [2] = tested on: Rattus norvegicus; conditions: oral; for LD50: acute, mortality
# [3] = tested on: Mus musculus; conditions: developmental; development
# [4] = tested on: Daphnia magna; conditions: chronic/long-term; duration: 21 days; reproduction
# [5] = tested on: Oncorhynchus mykiss
# [6] = tested on: Apis mellifera; conditions: acute; duration: 48 hours; oral; unspecified; mortality
# [7] = tested on: Oryctolagus sp.; conditions: developmental; development
# [8] = tested on: Canidae; conditions: chronic; duration: 1 years; oral; Dog Other; histopathology: nonneoplastic
# [9] = tested on: Hypoaspis aculeifer; conditions: chronic/long-term
# [10] = tested on: Tagia sp.
# [11] = reproduction developmental, diet
Structure (SMILES),"LC50 ([1]; acute, diet, mortality) [mg/kg-day]",LD50 [2] [mg/kg-day],LOAEL [3] [mg/kg-day],NOEC [4] [mg/L],"LC50 ([5]; acute, duration: 96 hours, mortality) [mg/L]","NOEC ([5]; chronic/long-term, duration: 83 days, growth) [mg/L]",LD50 [6] [µg/piece],NOEL [7] [mg/kg-day],NOAEL [8] [mg/kg-day],NOEC [9] [mg/kg],"LD50 ([1]; acute, mortality) [mg/kg-day]","LOEL [1, 11] [mg/kg-day]","NOEL [1, 11] [mg/kg-day]","NOEL ([2]; reproduction developmental, diet, body weight) [mg/kg-day]","LC50 ([10]; acute, duration: 14 days, mortality) [mg/kg]","NOEC ([10]; chronic/long-term, duration: 8 weeks, reproduction) [mg/kg]"
"NC(Cc1ncn[nH]1)C(=O)O (stereo not drawn) [1,2,4-Triazole-3-alanine]",> 1370,> 5000,–,–,–,–,–,–,–,–,–,–,–,–,–,–
CC(C)(C)C(O)(CCc1ccc(Cl)cc1)Cn1cncn1 (stereo not drawn) [Tebuconazole],> 703,1700,10,0.01,4.4,0.012,> 83,10,3,50,1990,12.4,5.8,10,1380,10
